Source: patent US9212139B2, “Aryl substituted indoles and their use as blockers of sodium channels” (Purdue Pharma, L.P., priority 2010, dated 2015)
Where two headings read alike, the source gives them in different places.

Columns and labels:
human Nav1.7 = human Nav1.7 (Homo sapiens (Human), UniProt Q15858); test: FLIPR or FLIPR TETRA sodium dye assay with KCl and test article pre-incubation; assay type: cell-based
Description: For dominant selection of the Nav1.7-expressing clones, the expression plasmid co-expressed the neomycin resistance gene. […] Recombinant beta and gamma subunits were not introduced into this cell line. Additional cell lines expressing recombinant Nav1.7 cloned from other species can also be used, alone or in combination with various beta subunits, gamma subunits or chaperones.
Cell maintenance: Unless otherwise noted, cell culture reagents were purchased from Mediatech of Herndon, Va. The recombinant Nav1.7/HEK293 cells were routinely cultured in growth medium consisting of Dulbecco's […] containing 10% fetal bovine serum (FBS, Hyclone, Thermo Fisher Scientific, Logan, Utah), 100 U/mL penicillin, […], 2-4 mM L-glutamine, and […]. For natural, non-recombinant cell lines, the selective antibiotic was omitted, and additional media formulations can be applied as needed.
The intensity of this emission, but not the wavelength range, is increased when the dye is exposed to Na^+ ions, which it can bind with partial selectivity. Cells expressing Nav1.7 or other sodium channels were loaded with the CoroNa™ Green dye immediately in advance of the fluorescence assay, and then, after agonist stimulation, the mobilization of Na^+ ions was detected as the Na^+ ions flowed from the extracellular fluid into the cytoplasm through the activated sodium channel pores. The dye was stored in the dark as a lyophilized powder, and then an aliquot was dissolved immediately before the cell loading procedure, according to the instructions of the manufacturer to a stock concentration of 10 mM in DMSO. It was then diluted in the assay buffer to a 4× concentrated working solution, so that the final concentration of dye in the cell loading buffer was 5 μM.
These scorpion toxins inhibit the fast inactivation of their cognate target channels. Stock solutions of the agonists were prepared to 40 mM in DMSO (veratridine) and 1 mg/mL in dH2O (scorpion venom), and then diluted to make a 4× or 2× stock (depending on the particular assay) in assay buffer, the final concentration being 100 μM (veratridine) and 10 μg/mL (scorpion venom). Both of the agonists were purchased from Sigma Aldrich, St. Louis, Mo.
Test Compounds: Test compounds were dissolved in DMSO to yield 10 mM stock solutions. […] If a particular test article appeared to be especially potent, then the concentration curve was adjusted, e.g., to 10-fold lower concentrations, in order to perform the dose-response in a more relevant concentration range. Compound dilutions were added during the dye-loading and pre-stimulation step, and then again during the fluorescence assay, early in the kinetic read.
Data Analysis: The data were analyzed according to methods known to those skilled in the art or using the GraphPad® Prism 4.0 Program (available from GraphPad Software, San Diego, Calif.) to determine the IC50 value for the test article. At least one standard reference compound was evaluated during each experiment.
FLIPR® or FLIPR^TETRA® sodium dye assay with KCl and test article pre-incubation: Cells were prepared by plating the recombinant HEK293 cells or other host cells expressing either recombinant or non-recombinant, native, Nav1.7 alpha subunit, alone or in combination with various beta and gamma subunits at a density of ˜40,000 cells/well into a 96-well black, clear-bottom, PDL-coated plate. The assay can be adapted to 384-well or 1,536-well format, if desired, using proportionately less cells and media. […] For counter-screens of other voltage-gated sodium channels, the procedure was very similar, though optimal densities of cells, media and subsequent assay components can be fine-tuned for the particular cell line or isoform.

hNav1.7 = hNav1.7 (Homo sapiens (Human), UniProt Q15858); test: Electrophysiology (EP) assay, whole-cell patch clamp; assay type: cell-based; conditions: read-out: EP Nav1.7 Ki
Procedure: Cells: The hNav1.7 expressing HEK-293 cells were plated on 35 mm culture dishes pre-coated with poly-D-lysine in standard DMEM culture media (Mediatech, Inc., Herndon, Va.) and incubated in a 5% CO2 incubator at 37° C. Cultured cells were used approximately 12-48 hours after plating.
Electrophysiology: On the day of experimentation, the 35 mm dish was placed on the stage of an inverted microscope equipped with a perfusion system that continuously perfuses the culture dish with fresh recording media. A gravity driven superfusion system was used to apply test solutions directly to the cell under evaluation. This system consists of an array of glass pipette glass connected to a motorized horizontal translator. The outlet of the shooter was positioned approximately 100 μm from the cell of interest.
Gigaseals were formed and the whole-cell configuration was established in voltage clamp mode, and membrane currents generated by hNav1.7 were recorded in gap-free mode. […] Signals were sampled at 50 kHz and low pass filtered at 3 kHz.
The voltage clamp protocol to examine hNav1.7 currents was as follows. First, the standard current-voltage relationship was tested by pulsing the cell from the holding voltage (Vh) of −120 mV by a series of 5 msec long square-shaped test pulses incrementing in +10 mV steps over the membrane voltage range of −90 mV to +60 mV at the pace of stimulation of 0.5 Hz. This procedure determines the voltage that elicits the maximal current (Vmax). […] This procedure determines the voltage of full inactivation (Vfull). Third, the cell was repeatedly stimulated with the following protocol, first in the absence of the test compound then in its presence. The protocol consisted of depolarizing the cell from the holding potential of −120 mV to the Vfull value for 4.5 seconds then repolarizing the cell to the holding potential for 10 ms before applying the test pulse to the Vmax for 5 ms. The amount of inhibition produced by the test compound was determined by comparing the current amplitude elicited by the test pulse in the absence and presence of the compound.
Vehicle solution used to establish base line was also contacting 0.3% DMSO.
Data analysis: Data was analyzed off-line using Clampfit software (pClamp, v. 8; Axon Instruments) and graphed using GraphPad Prizm (v. 4.0) software.

[1] = sodium dye assay with KCl, recombinant human Nav1.7 in HEK293 cells, value ± SEM
[2] = whole-cell patch clamp, hNav1.7 expressing HEK-293 cells
[3] = read-out: FLIPR Nav1.7 IC50 (μM) ± SEM

Sequence of hNav1.7 (Q15858 other isoform, or with tags, fused parts or gaps): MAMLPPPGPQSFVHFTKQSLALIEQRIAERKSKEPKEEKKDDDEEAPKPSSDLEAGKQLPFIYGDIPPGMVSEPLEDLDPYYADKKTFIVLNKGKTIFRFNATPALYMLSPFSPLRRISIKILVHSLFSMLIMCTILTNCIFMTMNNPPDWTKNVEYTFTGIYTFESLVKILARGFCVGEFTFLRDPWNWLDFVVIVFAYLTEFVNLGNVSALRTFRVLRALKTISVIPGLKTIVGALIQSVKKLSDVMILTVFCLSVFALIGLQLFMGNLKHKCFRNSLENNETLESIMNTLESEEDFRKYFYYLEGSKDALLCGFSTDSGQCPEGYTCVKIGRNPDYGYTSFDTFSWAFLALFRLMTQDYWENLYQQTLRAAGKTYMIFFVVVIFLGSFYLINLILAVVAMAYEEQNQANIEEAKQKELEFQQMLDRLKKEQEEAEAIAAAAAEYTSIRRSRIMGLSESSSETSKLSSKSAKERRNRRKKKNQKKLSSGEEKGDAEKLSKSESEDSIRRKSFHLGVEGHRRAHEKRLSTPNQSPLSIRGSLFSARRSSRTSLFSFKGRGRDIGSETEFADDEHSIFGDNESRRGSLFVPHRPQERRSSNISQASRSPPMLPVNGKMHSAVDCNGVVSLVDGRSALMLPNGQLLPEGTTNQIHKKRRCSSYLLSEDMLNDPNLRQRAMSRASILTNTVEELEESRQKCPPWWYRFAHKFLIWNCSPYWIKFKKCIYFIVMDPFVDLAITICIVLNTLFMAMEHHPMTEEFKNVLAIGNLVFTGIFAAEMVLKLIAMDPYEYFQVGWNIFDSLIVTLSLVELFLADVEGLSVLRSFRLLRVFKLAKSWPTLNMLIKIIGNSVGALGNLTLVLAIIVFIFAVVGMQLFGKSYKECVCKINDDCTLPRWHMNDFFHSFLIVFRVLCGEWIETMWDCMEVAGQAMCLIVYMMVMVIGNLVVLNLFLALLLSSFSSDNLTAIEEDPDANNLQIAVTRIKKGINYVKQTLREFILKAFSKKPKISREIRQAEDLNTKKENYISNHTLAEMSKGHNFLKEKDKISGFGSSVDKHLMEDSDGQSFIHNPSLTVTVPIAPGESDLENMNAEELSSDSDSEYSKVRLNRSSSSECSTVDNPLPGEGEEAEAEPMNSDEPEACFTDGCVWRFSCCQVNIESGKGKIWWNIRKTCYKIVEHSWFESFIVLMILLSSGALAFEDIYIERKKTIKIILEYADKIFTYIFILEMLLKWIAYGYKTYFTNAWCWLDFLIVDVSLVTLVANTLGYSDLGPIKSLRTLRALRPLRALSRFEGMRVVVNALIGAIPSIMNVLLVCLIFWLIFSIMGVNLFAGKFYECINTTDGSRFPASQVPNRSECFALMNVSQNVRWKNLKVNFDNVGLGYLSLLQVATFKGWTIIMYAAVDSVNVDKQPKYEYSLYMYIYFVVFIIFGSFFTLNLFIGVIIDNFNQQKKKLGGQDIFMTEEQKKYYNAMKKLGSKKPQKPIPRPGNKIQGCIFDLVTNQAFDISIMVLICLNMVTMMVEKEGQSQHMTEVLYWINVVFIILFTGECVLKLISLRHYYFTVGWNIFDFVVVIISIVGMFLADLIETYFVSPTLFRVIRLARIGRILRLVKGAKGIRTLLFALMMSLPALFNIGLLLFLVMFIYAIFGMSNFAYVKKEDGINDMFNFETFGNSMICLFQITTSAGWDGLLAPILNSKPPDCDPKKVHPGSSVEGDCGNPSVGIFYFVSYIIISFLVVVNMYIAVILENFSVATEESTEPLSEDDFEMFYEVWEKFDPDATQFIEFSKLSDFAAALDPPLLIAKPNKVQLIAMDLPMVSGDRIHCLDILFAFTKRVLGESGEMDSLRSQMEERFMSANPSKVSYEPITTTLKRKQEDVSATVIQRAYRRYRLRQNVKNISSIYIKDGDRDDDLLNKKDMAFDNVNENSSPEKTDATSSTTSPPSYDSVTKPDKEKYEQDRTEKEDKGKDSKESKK
Sequence of human Nav1.7 (Q15858 other isoform, or with tags, fused parts or gaps): as above

Row | SMILES | IC50 (human Nav1.7; [1]) | Ki (hNav1.7; [2]) | IC50 (human Nav1.7; [3]) | Ki (hNav1.7)
1 | NC(=O)C(N)Cc1c[nH]c2ccc(-c3ccc(Oc4ccccc4)cc3)cc12 (stereo not drawn) [Compound 8, 2-Amino-3-[5-(4-phenoxyphenyl)-1H-indol-3-yl]propionamide] | 0.399 ± 0.024 µM | 670 nM |  | 
2 | NC(CO)Cc1c[nH]c2ccc(-c3ccc(Oc4ccccc4)cc3)cc12 (stereo not drawn) [Compound 10, 2-Amino-3-[5-(4-phenoxyphenyl)-1H-indol-3-yl]propan-1-ol] |  |  | 0.296 ± 0.087 µM | 360 nM
3 | NC(CO)Cc1c[nH]c2c(-c3ccc(Oc4ccccc4)cc3)cccc12 (stereo not drawn) [Compound 22, 2-Amino-3-[7-(4-phenoxyphenyl)-1H-indol-3-yl]propan-1-ol] |  |  | 0.151 ± 0.016 µM | 830 nM
4 | NC(CO)Cc1cn(-c2ccc(Oc3ccccc3)cc2)c2ccccc12 (stereo not drawn) [Compound 34, 2-Amino-3-[1-(4-phenoxyphenyl)-1H-indol-3-yl]propan-1-ol] | 0.389 ± 0.081 µM | 260 nM |  | 
5 | NC(=O)C(N)Cc1cn(-c2ccc(Oc3ccccc3)cc2)c2ccccc12 (stereo not drawn) [Compound 35, 2-Amino-3-[1-(4-phenoxyphenyl)-1H-indol-3-yl]propionamide] | 0.278 ± 0.061 µM | 40 nM |  | 
6 | N#Cc1cc(Oc2ccc(-n3cc(C[C@@H](N)CO)c4ccccc43)cc2)ccc1C(F)(F)F [Compound 44, (R)-5-{4-[3-(2-Amino-3-hydroxypropyl)-1H-indol-1-yl]phenoxy}-2-(trifluoromethyl)benzonitrile] | 0.304 ± 0.046 µM | 290 nM |  | 
7 | CN(C)CCc1cn(-c2ccc(Oc3ccccc3)cc2)c2ccc(C[C@H](N)CO)cc12 [Compound 48, (S)-2-Amino-3-[3-(2-(dimethylamino)ethyl)-1-(4-phenoxyphenyl)-1H-indol-5-yl]propan-1-ol] | 3.82 ± 1.02 µM | 1310 nM |  | 
8 | N#Cc1cc(Oc2ccc(-n3cc(C[C@H](O)CO)c4ccccc43)cc2)ccc1C(F)(F)F [Compound 54, (S)-5-{4-[3-(2,3-Dihydroxypropyl)-1H-indol-1-yl]phenoxy}-2-(trifluoromethyl)benzonitrile] | 0.21 ± 0.035 µM | 70 nM |  | 
9 | COC(=O)c1ccc2c(C(O)C(N)=O)cn(-c3ccc(Oc4ccc(C(F)(F)F)c(C#N)c4)cc3)c2c1 (stereo not drawn) [Compound 65, Methyl 3-(2-amino-1-hydroxy-2-oxoethyl)-1-(4-(3-cyano-4-(trifluoromethyl)phenoxy)phenyl)-1H-indole-6-carboxylate] | 0.536 ± 0.129 µM | 1910 nM |  | 
10 | N#Cc1cc(Oc2ccc(-n3cc(C(O)C(=O)NC[C@H](O)CO)c4ccccc43)cc2)ccc1C(F)(F)F (stereo partly drawn) [Compound 69, 2-(1-(4-(3-Cyano-4-(trifluoromethyl)phenoxy)phenyl)-1H-indol-3-yl)-N—((S)-2,3-dihydroxypropyl)-2-hydroxyacetamide] | 0.732 ± 0.113 µM | 2670 nM |  | 
11 | OC[C@@H](O)Cc1cn(C[C@H](O)CO)c2ccc(-c3ccc(Oc4ccc(F)cc4)cc3)cc12 [Compound 74, (2S,2′S)-3,3′-(5-(4-(4-Fluorophenoxy)phenyl)-1H-indole-1,3-diyl)bis(propane-1,2-diol)] | 0.5 ± 0.091 µM | 920 nM |  | 
12 | NC(=O)c1cccc2c1c(C[C@H](O)CO)cn2-c1ccc(Oc2ccc(F)cc2)cc1 [Compound 122, (S)-3-(2,3-Dihydroxypropyl)-1-(4-(4-fluorophenoxy)phenyl)-1H-indole-4-carboxamide] | 0.222 ± 0.036 µM | 300 nM |  | 
13 | NC(=O)c1nn(-c2ccc(Oc3ccc(C(F)(F)F)cn3)cc2)c2ccccc12 [Compound 155, 1-(4-((5-(Trifluoromethyl)pyridin-2-yl)oxy)phenyl)-1H-indazole-3-carboxamide] |  |  | 0.362 ± 0.06 µM | 250 nM
14 | N#Cc1ccc(Oc2ccc(-n3cc(C[C@H](O)CO)c4ncccc43)cc2)cc1 [Compound 175, (S)-4-(4-(3-(2,3-Dihydroxypropyl)-1H-pyrrolo[3,2-b]pyridin-1-yl)phenoxy)benzonitrile] | 0.549 ± 0.197 µM | 170 nM |  | 
15 | CCN(CC)CCn1cc(C(O)C(N)=O)c2cc(-c3ccc(Oc4ccc(F)cc4)cc3)ccc21 (stereo not drawn) [Compound 179, 2-(1-(2-(Diethylamino)ethyl)-5-(4-(4-fluorophenoxy)phenyl)-1H-indol-3-yl)-2-hydroxyacetamide] | 0.912 ± 0.079 µM | 270 nM |  | 
16 | NC(=O)Cn1cc(C[C@H](O)CO)c2cc(-c3ccc(Oc4ccc(F)cc4)cc3)ccc21 [Compound 186, (S)-2-(3-(2,3-Dihydroxypropyl)-5-(4-(4-fluorophenoxy)phenyl)-1H-indol-1-yl)acetamide] | 0.717 ± 0.042 µM |  |  | 
17 | N#Cc1ccc(Oc2ccc(-n3cc(C(O)(C(N)=O)C(F)(F)F)c4ccccc43)cc2)cc1C(F)(F)F (stereo not drawn) [Compound 192, 2-(1-(4-(4-Cyano-3-(trifluoromethyl)phenoxy)phenyl)-1H-indol-3-yl)-3,3,3-trifluoro-2-hydroxypropanamide] |  |  | 0.475 ± 0.065 µM | 
18 | N#Cc1ccc(Oc2ccc(-n3cc(C(O)C(N)=O)c4ccccc43)cc2)cc1C(F)(F)F (stereo not drawn) [Compound 193, 2-(1-(4-(4-Cyano-3-(trifluoromethyl)phenoxy)phenyl)-1H-indol-3-yl)-2-hydroxyacetamide] |  |  | 0.414 ± 0.026 µM | 
19 | NC(=O)C(O)c1cn(-c2ccc(Oc3ccc(C(F)(F)F)cn3)cc2)c2ccccc12 (stereo not drawn) [Compound 195, 2-Hydroxy-2-(1-(4-((5-(trifluoromethyl)pyridin-2-yl)oxy)phenyl)-1H-indol-3-yl)acetamide] | 0.276 ± 0.011 µM |  |  | 
20 | N[C@H](CO)Cc1cn(-c2ccc(Oc3ccc(C(F)(F)F)cn3)cc2)c2ccccc12 [Compound 196, (S)-2-Amino-3-(1-(4-((5-(trifluoromethyl)pyridin-2-yl)oxy)phenyl)-1H-indol-3-yl)propan-1-ol] | 0.34 ± 0.023 µM |  |  | 
21 | OCCn1cc(C[C@H](O)CO)c2cc(-c3ccc(Oc4ccc(F)cc4)cc3)ccc21 [Compound 200, (S)-3-(5-(4-(4-fluorophenoxy)phenyl)-1-(2-hydroxyethyl)-1H-indol-3-yl)propane-1,2-diol] | 0.273 ± 0.061 µM |  |  | 
